Assay results from ChEMBL document CHEMBL4342447, “l-Phenylalanine Alters the Privileged Secondary Metabolite Production in the Marine-Derived Fungus Trichoderma erinaceum F1-1” (J Nat Prod, 2020).

How the values were obtained:
MDA-MB-435 = assay: Cytotoxicity against human MDA-MB-435 cells assessed as reduction in cell viability by MTT assay; type: functional, cell-based
A549 = assay: Cytotoxicity against human A549 cells assessed as reduction in cell viability by MTT assay; type: functional, cell-based

SMILES	IC50 (MDA-MB-435)	IC50 (A549)
CCC(=O)Oc1cc(C)cc(Oc2cc(C)cc(OC)c2)c1	31.9 µM	
CC(C)(c1ccc(O)cc1)c1ccc(OCC(O)COc2ccc(C(C)(C)c3ccc(O)cc3)cc2)cc1	22.3 µM	18.4 µM
COc1cc(C)cc(Oc2cc(C)cc(O)c2)c1 [CORDYOL E]	41.1 µM	
COc1cc(C)cc(Oc2cc(C)cc(OC)c2)c1	12.5 µM	
